# Entries after “also recorded” stand apart in the source; their conditions may differ. Where two headings read alike, the source gives them in different places.
# What was measured:
# [1] = target: T1, cloned human μ-opioid receptor (Homo sapiens, UniProt P35372); conditions: for fold more potent than naloxone as μ-antagonist: [35S]GTP-γ-S functional binding assay; for μ-antagonist potency compared with naloxone or naltrexone (in words): [35S]GTP-γ-S assay; for Ke: shift of DAMGO dose-response curve by test agent, hMOR-CHO membranes, ± SD
# T1 sequence (P35372 whole entry): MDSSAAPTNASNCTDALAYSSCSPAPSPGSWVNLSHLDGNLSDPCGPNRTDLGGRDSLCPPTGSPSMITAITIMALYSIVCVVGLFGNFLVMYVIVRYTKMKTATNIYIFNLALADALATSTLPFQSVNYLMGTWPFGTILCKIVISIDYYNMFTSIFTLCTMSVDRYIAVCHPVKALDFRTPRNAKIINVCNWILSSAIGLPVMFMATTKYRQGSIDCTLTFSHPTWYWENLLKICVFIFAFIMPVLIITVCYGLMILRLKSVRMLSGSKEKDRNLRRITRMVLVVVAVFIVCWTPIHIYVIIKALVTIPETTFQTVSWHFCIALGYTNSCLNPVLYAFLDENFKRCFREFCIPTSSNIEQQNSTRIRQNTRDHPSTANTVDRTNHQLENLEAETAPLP
# μ-opioid receptor [2] = target: T2, μ-opioid receptor (Homo sapiens, UniProt P35372); assay: biochemical
# T2 sequence (P35372 whole entry): as above
# κ-opioid receptor = κ-opioid receptor (Homo sapiens, UniProt P41145); assay: biochemical; format: binding
# Chain of κ-opioid receptor (P41145 whole entry): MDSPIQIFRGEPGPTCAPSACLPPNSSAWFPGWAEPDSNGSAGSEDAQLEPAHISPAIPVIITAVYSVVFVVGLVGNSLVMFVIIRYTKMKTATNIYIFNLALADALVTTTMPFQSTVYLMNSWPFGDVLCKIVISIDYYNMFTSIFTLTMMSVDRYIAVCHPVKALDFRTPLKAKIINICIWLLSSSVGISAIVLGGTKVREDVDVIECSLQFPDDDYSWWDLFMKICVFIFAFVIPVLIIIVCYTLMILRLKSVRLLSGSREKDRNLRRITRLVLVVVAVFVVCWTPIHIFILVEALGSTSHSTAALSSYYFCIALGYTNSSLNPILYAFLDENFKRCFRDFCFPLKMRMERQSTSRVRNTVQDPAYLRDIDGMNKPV
# [3] = target: T1, cloned human μ-opioid receptor; assay: biochemical
# δ-opioid receptor = δ-opioid receptor (Homo sapiens, UniProt P41143); assay: biochemical; format: binding
# Chain of δ-opioid receptor (P41143 whole entry): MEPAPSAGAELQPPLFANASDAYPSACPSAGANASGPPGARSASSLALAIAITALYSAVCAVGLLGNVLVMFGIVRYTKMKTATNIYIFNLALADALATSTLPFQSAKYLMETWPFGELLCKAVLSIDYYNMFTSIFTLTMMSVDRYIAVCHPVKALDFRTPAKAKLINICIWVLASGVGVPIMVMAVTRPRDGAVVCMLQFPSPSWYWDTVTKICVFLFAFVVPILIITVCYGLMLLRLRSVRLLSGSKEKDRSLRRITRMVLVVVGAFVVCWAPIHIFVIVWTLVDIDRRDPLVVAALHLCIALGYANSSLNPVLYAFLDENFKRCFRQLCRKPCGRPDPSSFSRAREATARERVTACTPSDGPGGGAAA
# [4] = target: T1, cloned human μ-opioid receptor; conditions: full inverse agonist curve; cited from earlier work
# μ-opioid receptor [5] = target: T2, μ-opioid receptor; conditions: for Ki: read-out: Ki, μ
# [6] = target: T1, cloned human μ-opioid receptor; conditions: 10 μM, non-dependent hMOR cells
# [7] = read-out: Ki, δ, 125I-IOXY, hDOR-CHO, n = 3 (± SD)
SMILES,fold more potent than naloxone as μ-antagonist [1] [fold],Ki (μ-opioid receptor [2]) [nM],Ki (κ-opioid receptor) [nM],Kb [3] [nM],Ki (δ-opioid receptor) [nM],inverse agonist activity at non-dependent μ-opioid receptors [4],μ-antagonist potency compared with naloxone or naltrexone (in words) [1],Ke [1] [nM],Ki (μ-opioid receptor [5]) [nM],"Ki (κ-opioid receptor; read-out: Ki, κ) [nM]",Ki (δ-opioid receptor; [7]) [nM],fold difference in μ Ki between the cis stereoisomers (μ-opioid receptor [5]) [fold],inverse agonist activity (effect on [35S]GTP-γ-S binding) [6]
"Oc1cccc([C@@]23CCC[C@@H](C2)N(CC=Cc2ccccc2)CC3)c1 [(+)−6, 3-((1S,5R)-2-Cinnamyl-2-azabicyclo[3.3.1]nonan-5-yl)phenol]",4,2 ± 0.13,125 ± 3,0.58 ± 0.07,138 ± 5,–,–,–,–,–,–,–,–
"Oc1cccc([C@@]23CCC[C@@H](C2)N(C/C=C\c2ccccc2)CC3)c1 [(+)−9, 3-((1S,5R)-2-((Z)-3-phenylallyl)-2-azabicyclo[3.3.1]nonan-5-yl)phenol]",–,26 ± 2,123 ± 4,3.1 ± 0.7,454 ± 25,inverse agonist,about as potent as naloxone,–,–,–,–,–,–
"Oc1cccc([C@]23CCC[C@H](C2)N(C[C@H]2C[C@@H]2c2ccccc2)CC3)c1 [(+)−29, 3-((1R,5S)-2-(((1’S,2’S)-2-Phenylcyclopropyl)methyl)-2-azabicyclo[3.3.1]nonan-5-yl)phenol]",–,–,–,–,–,–,–,0.17 ± 0.02,3 ± 0.26,72 ± 4,165 ± 7,–,–
"Oc1cccc([C@@]23CCC[C@@H](C2)N(C[C@H]2C[C@@H]2c2ccccc2)CC3)c1 [(+)−30, 3-((1S,5R)-2-(((1’S,2’S)-2-Phenylcyclopropyl)methyl)-2-azabicyclo[3.3.1]nonan-5-yl)phenol]",–,–,–,–,–,–,equipotent with naloxone; also recorded: about as potent as naloxone,2.2 ± 0.4,16 ± 1,323 ± 15,183 ± 7,–,–
"Oc1cccc([C@]23CCC[C@H](C2)N(C[C@H]2C[C@H]2c2ccccc2)CC3)c1 [(+)−31, 3-((1R,5S)-2-(((1’S,2’R)-2-Phenylcyclopropyl)methyl)-2-azabicyclo[3.3.1]nonan-5-yl)phenol]",–,–,–,–,–,–,–,33 ± 7,459 ± 14,475 ± 33,1980 ± 54,~42,–
"Oc1cccc([C@@]23CCC[C@@H](C2)N(C[C@H]2C[C@H]2c2ccccc2)CC3)c1 [(+)−32, 3-((1S,5R)-2-(((1’S,2’R)-2-Phenylcyclopropyl)methyl)-2-azabicyclo[3.3.1]nonan-5-yl)phenol]",–,–,–,–,–,–,–,18 ± 6,76 ± 0.3,174 ± 12,547 ± 23,–,–
"Oc1cccc([C@]23CCC[C@H](C2)N(CC=Cc2ccccc2)CC3)c1 [(−)−6, 3-((1R,5S)-2-Cinnamyl-2-azabicyclo[3.3.1]nonan-5-yl)phenol]",–,6 ± 0.39,225 ± 7,6.6 ± 0.7,152 ± 5,–,four fold less active as opioid antagonists,–,–,–,–,–,little or no activity as an inverse agonist; also recorded: did not act as inverse agonists
"Oc1cccc([C@]23CCC[C@H](C2)N(C/C=C\c2ccccc2)CC3)c1 [(−)−9, 3-((1R,5S)-2-((Z)-3-phenylallyl)-2-azabicyclo[3.3.1]nonan-5-yl)phenol]",–,14 ± 0.7,367 ± 18,7.7 ± 1.6,359 ± 18,–,–,–,–,–,–,–,–
"Oc1cccc([C@@]23CCC[C@@H](C2)N(C[C@@H]2C[C@H]2c2ccccc2)CC3)c1 [(−)−29, 3-((1S,5R)-2-(((1’R,2’R)-2-Phenylcyclopropyl)methyl)-2-azabicyclo[3.3.1]nonan-5-yl)phenol]",–,–,–,–,–,–,–,9.4 ± 1.5,47 ± 3,390 ± 16,800 ± 29,–,–
"Oc1cccc([C@]23CCC[C@H](C2)N(C[C@@H]2C[C@H]2c2ccccc2)CC3)c1 [(−)−30, 3-((1R,5S)-2-(((1’R,2’R)-2-Phenylcyclopropyl)methyl)-2-azabicyclo[3.3.1]nonan-5-yl)phenol]",7,–,–,–,–,–,about equipotent with naltrexone,0.31 ± 0.06,4 ± 0.27,210 ± 13,200 ± 10,–,–
"Oc1cccc([C@@]23CCC[C@@H](C2)N(C[C@@H]2C[C@@H]2c2ccccc2)CC3)c1 [(−)−31, 3-((1S,5R)-2-(((1’R,2’S)-2-Phenylcyclopropyl)methyl)-2-azabicyclo[3.3.1]nonan-5-yl)phenol]",–,–,–,–,–,–,–,8.6 ± 1.9,265 ± 17,153 ± 7,610 ± 25,–,–
"Oc1cccc([C@]23CCC[C@H](C2)N(C[C@@H]2C[C@@H]2c2ccccc2)CC3)c1 [(−)−32, 3-((1R,5S)-2-(((1’R,2’S)-2-Phenylcyclopropyl)methyl)-2-azabicyclo[3.3.1]nonan-5-yl)phenol]",–,–,–,–,–,–,four fold less active as opioid antagonists,8.2 ± 1.8,11 ± 0.9,322 ± 22,196 ± 6,–,did not act as inverse agonists

# — paper PMC3047451 (Journal of medicinal chemistry, 2011)
